Assay results taken from patent US10385057B2, “Pyrazole compounds and methods of making and using same” (Lundbeck La Jolla Research Center, Inc., priority 2015, dated 2019).

Assays:
Format in all cases: biochemical
MAGL [1] = molecular target: T1, MAGL (Homo sapiens, UniProt Q99685); test: In vitro competitive activity-based protein profiling, human MAGL; conditions: for inhibition at 10 µM: read-out: MAGL % inh. 10 μM (human); for inhibition at 1 µM: read-out: MAGL % inh. 1 μM (human)
T1 construct: human prefrontal cortex or cell membrane fractions for human assays; from tissue
T1 sequence (Q99685 1-303): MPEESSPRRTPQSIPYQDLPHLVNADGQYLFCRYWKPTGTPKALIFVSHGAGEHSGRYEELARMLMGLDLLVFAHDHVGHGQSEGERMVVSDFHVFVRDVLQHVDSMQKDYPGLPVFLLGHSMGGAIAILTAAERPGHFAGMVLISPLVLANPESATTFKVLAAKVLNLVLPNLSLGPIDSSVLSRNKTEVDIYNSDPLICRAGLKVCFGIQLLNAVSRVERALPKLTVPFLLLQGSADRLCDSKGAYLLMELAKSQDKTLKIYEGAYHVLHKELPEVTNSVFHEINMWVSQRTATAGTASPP
Protocol: (§1) In Vitro Competitive Activity-Based Protein Profiling.
(§2) Proteomes (mouse brain membrane fraction or cell lysates for mouse assays; human prefrontal cortex or cell membrane fractions for human assays) (50 μL, 1.0 mg/mL total protein concentration) were preincubated with varying concentrations of inhibitors at 37° C. After 30 min, FP-Rh or HT-01 (1.0 μL, 50 μM in DMSO) was added and the mixture was incubated for another 30 min at 37° C. Reactions were quenched with SDS loading buffer (15 μL—4×) and run on SDS-PAGE. Following gel imaging, serine hydrolase activity was determined by measuring fluorescent intensity of gel bands corresponding to MAGL and FAAH using ImageJ 1.43u software.

FAAH [2] = molecular target: T2, FAAH (Homo sapiens, UniProt O00519); test: In vitro competitive activity-based protein profiling, human FAAH; conditions: for inhibition at 10 µM: read-out: FAAH % inh. 10 μM (human); for inhibition at 1 µM: read-out: FAAH % inh. 1 μM (human)
T2 construct: human prefrontal cortex or cell membrane fractions for human assays; from tissue
T2 sequence (O00519 1-579): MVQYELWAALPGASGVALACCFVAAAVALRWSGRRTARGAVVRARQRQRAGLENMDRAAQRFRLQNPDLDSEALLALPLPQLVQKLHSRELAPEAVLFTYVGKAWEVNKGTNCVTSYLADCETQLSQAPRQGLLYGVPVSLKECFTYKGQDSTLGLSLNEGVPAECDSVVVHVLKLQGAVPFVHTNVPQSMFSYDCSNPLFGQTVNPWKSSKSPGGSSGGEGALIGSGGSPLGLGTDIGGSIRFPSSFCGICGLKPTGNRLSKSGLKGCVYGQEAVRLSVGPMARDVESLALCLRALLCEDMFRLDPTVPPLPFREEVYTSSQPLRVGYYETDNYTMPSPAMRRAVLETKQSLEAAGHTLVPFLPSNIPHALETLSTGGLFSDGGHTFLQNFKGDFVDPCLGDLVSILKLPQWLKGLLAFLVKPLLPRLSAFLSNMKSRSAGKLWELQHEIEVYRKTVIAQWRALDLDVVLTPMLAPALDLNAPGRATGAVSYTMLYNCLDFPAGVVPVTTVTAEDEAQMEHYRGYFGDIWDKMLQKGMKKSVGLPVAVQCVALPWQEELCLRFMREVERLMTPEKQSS
Protocol: as §1, §2

MAGL [3] = molecular target: T3, MAGL (Mus musculus, UniProt O35678); test: In vitro competitive activity-based protein profiling, mouse MAGL; conditions: 1 μM, read-out: MAGL % inh. 1 μM (mouse)
T3 construct: mouse brain membrane fraction or cell lysates for mouse assays; from tissue
T3 sequence (O35678 1-303): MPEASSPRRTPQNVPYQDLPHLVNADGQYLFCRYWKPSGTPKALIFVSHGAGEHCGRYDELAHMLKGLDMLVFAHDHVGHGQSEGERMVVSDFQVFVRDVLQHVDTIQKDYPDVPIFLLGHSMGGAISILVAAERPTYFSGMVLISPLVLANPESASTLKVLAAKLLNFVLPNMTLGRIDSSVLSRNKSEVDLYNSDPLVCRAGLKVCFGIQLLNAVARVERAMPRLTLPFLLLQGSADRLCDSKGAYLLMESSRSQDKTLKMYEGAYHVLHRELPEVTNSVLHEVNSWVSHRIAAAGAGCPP
Outline: (§3)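 Mouse brain membranes or cell lysates (mouse) and human prefrontal cortex or cell membrane fractions (human), 1.0 mg/mL protein, preincubated with inhibitor 30 min at 37 °C, then FP-Rh or HT-01 probe 30 min at 37 °C. SDS-PAGE; MAGL and FAAH activity from in-gel fluorescence band intensity.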

FAAH [4] = molecular target: T4, FAAH (Mus musculus, UniProt O08914); test: In vitro competitive activity-based protein profiling, mouse FAAH; conditions: 1 μM, read-out: FAAH % inh. 1 μM (mouse)
T4 construct: mouse brain membrane fraction or cell lysates for mouse assays; from tissue
T4 sequence (O08914 1-579): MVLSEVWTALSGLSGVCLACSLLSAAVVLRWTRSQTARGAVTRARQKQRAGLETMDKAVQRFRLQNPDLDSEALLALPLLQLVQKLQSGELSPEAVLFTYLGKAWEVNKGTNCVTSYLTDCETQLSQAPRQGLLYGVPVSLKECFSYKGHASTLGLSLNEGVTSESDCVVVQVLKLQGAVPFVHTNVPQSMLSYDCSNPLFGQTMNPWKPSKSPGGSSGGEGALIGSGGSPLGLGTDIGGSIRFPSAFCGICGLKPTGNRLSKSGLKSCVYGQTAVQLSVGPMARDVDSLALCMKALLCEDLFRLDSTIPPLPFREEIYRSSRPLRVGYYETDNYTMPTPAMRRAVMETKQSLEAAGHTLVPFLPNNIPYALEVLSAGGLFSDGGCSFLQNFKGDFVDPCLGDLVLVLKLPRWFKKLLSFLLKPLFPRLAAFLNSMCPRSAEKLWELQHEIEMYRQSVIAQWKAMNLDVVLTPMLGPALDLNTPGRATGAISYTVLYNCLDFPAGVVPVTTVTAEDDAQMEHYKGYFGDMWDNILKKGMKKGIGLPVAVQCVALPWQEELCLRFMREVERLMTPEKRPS
Outline: as §3

Row | inhibition at 10 µM (MAGL [1]) [%] | inhibition at 10 µM (FAAH [2]) [%] | inhibition at 1 µM (MAGL [3]) [%] | inhibition at 1 µM (FAAH [4]) [%] | inhibition at 1 µM (MAGL [1]) [%] | inhibition at 1 µM (FAAH [2]) [%] | Structure (SMILES)
1 | ≥ 75 | 50 to 75 | 0 to 25 | 50 to 75 | – | – | CN(Cc1cccc(Oc2ccccc2)c1)[C@H]1C[C@@H]2CN(C(=O)n3cc(C(=O)O)cn3)C[C@@H]2C1 [Example 188, 1-(trans-5-(methyl(3-phenoxybenzyl)amino)octahydrocyclopenta[c]pyrrole-2-carbonyl)-1H-pyrazole-4-carboxylic acid]
2 | ≥ 75 | ≥ 75 | 0 to 25 | 0 to 25 | 0 to 25 | 0 to 25 | CN(Cc1ccc(N2CCCC2)cc1C(F)(F)F)[C@@H]1C[C@@H]2CN(C(=O)n3cc(C(N)=O)cn3)C[C@@H]2C1 [Example 220, 1-(cis-5-(methyl(4-(pyrrolidin-1-yl)-2-(trifluoromethyl)benzyl)amino)octahydrocyclopenta[c]pyrrole-2-carbonyl)-1H-pyrazole-4-carboxamide]
3 | ≥ 75 | 25 to 50 | 0 to 25 | 50 to 75 | – | – | CN(Cc1ccccc1Cl)[C@H]1C[C@@H]2CN(C(=O)n3cc(C(=O)O)cn3)C[C@@H]2C1 [Example 183, 1-(trans-5-((2-chlorobenzyl)(methyl)amino)octahydrocyclopenta[c]pyrrole-2-carbonyl)-1H-pyrazole-4-carboxylic acid]
4 | ≥ 75 | ≥ 75 | 0 to 25 | ≥ 75 | 0 to 25 | ≥ 75 | O=C(O)c1cnn(C(=O)N2CC3CN(Cc4ccc(N5CCCC5)cc4C(F)(F)F)CC3C2)c1 (centres unmarked) [Example 197, 1-(5-(4-(pyrrolidin-1-yl)-2-(trifluoromethyl)benzyl)octahydropyrrolo[3,4-c]pyrrole-2-carbonyl)-1H-pyrazole-4-carboxylic acid]
